Laboratory results published in patent publication US6878690B2, “Compounds and methods” (PharmAxis Pty Ltd., priority 2000, dated 2005).

Key:
[1] = system: passively transferred adjuvant arthritis; assay: Passively transferred adjuvant induced arthritis; assay type: in vivo, DA rats; details: 25 mg/kg/day, end of the one week treatment period, FIG. 1
Procedure: Male DA rats 8 to 10 week old were immunised with three 100 microliter injections of Complete Freund's Adjuvant (CFA) intradermally at the base of the tail. The CFA was prepared by mixing 8 mg/ml of Mycobacterium butyricum (Difco Laboratories, USA) that had been ground to a fine powder using a mortar and pestle, in 85% light mineral oil (Sigma, USA) and 15% mannide monooleate (Sigma) and emulsifying this suspension, one part in one part saline. Thus, the final emulsion contained 4 mg/ml of M. butyricum.
Ten days after immunisation the rats were euthanased and the spleens removed aseptically. A single cell suspension was prepared in the usual manner in mixed lymphocyte culture medium (MLC) (Dulbecco's Modified Eagle's Medium (DMEM) plus glucose, folic acid, L-asparagine, sodium pyruvate, HEPES, 2-mercapto ethanol, penicillin, streptomycin, neomycin and 10% fetal calf serum) by pushing the spleens through a stainless steel sieve. The cells were placed in culture in MLC medium with 2 micrograms/ml concanavalin A added such that the lymphocyte concentration was 2 million cells per milliliter. These cells were cultured aseptically at 37° C. in an atmosphere containing 5% carbon dioxide for 72 hours.
Groups of 4 or 5 DA rats, 6 to 8 weeks of age were anesthetised with diethyl ether and implanted subcutaneously on the flank with Alzet 2002 (2 week delivery) or 2001 (1 week delivery) mini-osmotic pumps (Alza Corp., Palo Alto Calif., USA). One treatment group received phosphoric acid mono-(6-propyl-3,4,5-trihydroxy-tetrahydro-pyran-2-ylmethyl) ester in the one week delivery Alzet 2001 mini-osmotic pumps. The drug was delivered at a dose of 25 mg/kg/day. The control group for this experiment received identical mini-osmotic pumps containing normal saline. In a second experiment another group of DA rats received ethyl (3,4,5-trihydroxy-6-phosphonooxymethyl-tetrahydro-pyran-2-yl)-acetic acid ester in the two week delivery Alzet 2002 mini-osmotic pumps. This drug was delivered at a dose of 37 mg/kg/day. Control animals for this group received saline delivered in identical mini-osmotic pumps. The pumps in each case were implanted subcutaneously on the flank of each animal. […]
After 5 to 8 days, a characteristic thickening and cutaneous hyperemia of the distal joints of the hind legs became clinically apparent in the saline control animals. Disease severity was evaluated and graded in each group by taking daily measurements of the mediolateral widths of both ankle joints. The data were expressed as the mean of the change (compared with width prior to cell injection) in mediolateral ankle width expressed in millimeters (±standard error of the mean).

[2] = system: myelin basic protein (MBP)-specific T lymphocyte cell lines; assay: Inhibition of T-lymphocyte migration across rat brain endothelial cell layer (Transwell, 51Cr-labelled cells); assay type: cell-based, Lewis rats; details: test substance 10 mmolar in upper well; 6 hours; in comparison with the negative control (glucose 6-phosphate); triplicate
From the text: Vascular endothelial cells were isolated from rat brain capillaries taken from 6 to 8 week old Lewis rats according to the method of Risau et al. (Risau, W., Engelhardt, B., and Wekerle, H., (1990). Journal of Cell Biology, vol 110, p 1757-1766, which is incorporated herein by reference). Colonies of endothelial cells were purified from astroglial cells and pericytes by a Thy1.1-mediated complement lysis also after the method of Risau et al. (vide supra). The endothelial colonies, according to methods known in the art, were grown in Dulbecco's minimum essential medium (DMEM) high glucose supplemented, with 20% fetal calf serum (FCS), glutamine, pyruvate, nonessential amino acids, 4-(2-hydroxyethyl)-1-piperazine ethane sulfonic acid buffer (HEPES), kanamycin, amphotericin, heparin (all from Gibco) and 150 micrograms/ml endothelial growth supplement (Collaborative Biomedical Products). Upon reaching confluence, the endothelial cultures were washed with 0.2% EDTA in phosphate buffered saline (PBS), trypsinized (Trypsin-EDTA, 0.1% final concentration, Gibco), washed and again incubated with anti-Thy1.1 antibody for 40 minutes, washed and incubated with complement sufficient to lyse all Thy1.1+ cells (Behringwerke, AG, Marburg, Germany) at room temperature, washed and plated on matrigel-coated 6.5 mm Transwells, […] (Corning Costar Corporation, Cambridge, Mass.). The endothelial cell characteristics and confluence of the monolayer were checked by measuring the electrical resistance (World Precision Instruments, New Haven, U.S.A., model EVOM-G) and by staining with FITC-labeled phalloidin (Sigma). In order to study the effect of the agents of the present invention on T lymphocyte migration, myelin basic protein (MBP)-specific T lymphocyte cell lines were generated according to the method of Ben-Nun et al. (Ben-Nun, A., Wekerle, H. and Cohen, I. R., 1981). The rapid isolation of clonable antigen-specific T lymphocyte lines capable of mediating autoimmune encephalomyelitis. European Journal of Immunology. 1981, 11(3), 195-199; incorporated herein by reference) from the lymph nodes of Lewis rats that had been immunised with MBP in Freund's complete adjuvant. These cells were used for migration studies during the first 4 days of their propagation in IL-2 containing medium, following antigen (MBP) restimulation in the presence of antigen-presenting cells from irradiated spleen cells or thymocytes taken from normal Lewis rats. The antigen-activated T lymphocytes were radio-labelled with sodium chromate (^51Cr, 37 MBq/ml, Amersham, UK) for 30 minutes at 37° C. with occasional agitation, they were then washed three times with the DMEM culture medium and placed into the upper chamber of the Transwells at 5×10^5 cells in 100 microliters of migration medium. Test and control substance were included in the upper wells at final concentrations of 0.1, 1 and 10 mM. Cell migration was monitored by light microscopy in order to gauge progress of the experiment. […] The combined material was transferred into scintillation vials and the radioactivity of each tube determined by counting for 1 minute in a Packard Auto-Gamma 5650 (IL, USA) gamma counter. Each test and the control substance (glucose 6-phosphate) and no treatment were assessed in triplicate. […]

CCCC1OC(COP(=O)(O)O)C(O)C(O)C1O (stereo not drawn) [phosphoric acid mono-(6-propyl-3,4,5-trihydroxy-tetrahydro-pyran-2-ylmethyl) ester]
swelling in the affected joints of treated animals ([1]; one week Alzet 2001 pump subcutaneously, controls severe swelling): little swelling | disease status of the treated versus the control animals ([1]; one week Alzet 2001 pump): highly statistically significant difference | % inhibition ± SEM [2]: 64 ± 4%
